According to patent US20200325518A1, “Systems and Methods for Metabolic Assessment Utilizing 1-Methoxy-PMS Field” (priority 2019, published 2020):

System: Bacteria
Assay: BacTiter-Glo luminescence after incubation of bacteria with or without resazurin
Format: cell-based
Details: bacteria incubated 4 hours at 35° C. in presence of resazurin versus added after incubation
Protocol: Bacteria were inoculated into 96-well microplates comprise cation-adjusted Mueller Hinton broth in the presence and absence of resazurin (alamarBlue™) and incubated at 35° C. for 4 hours. For wells that were not incubated with resazurin, the growth indicator was added immediately after the 4-hour incubation. BacTiter-Glo® reagent (Promega, Madison, Wis.) was added to all wells and luminescence was measured. […] Thus, it can be advantageous to remove growth indicator from test wells during incubation.

Compound: O=c1ccc2[n+]([O-])c3ccc(O)cc3oc-2c1 [resazurin, 7-hydroxy-10-oxidophenoxazin-10-ium-3-one]
- luminescent signal upon addition of BacTiter-Glo (viable bacteria): less luminescent signal
